“And” between values parts separate entries of the source, which are not always exact repeats. Equal entries are not always repeated.
Assays:
[1] = tested on: UMRC2 human VHL-deficient renal cell carcinoma xenograft; assay: VHL-deficient renal cell carcinoma xenograft tumor model; assay type: in vivo; conditions: for anti-tumor activity compared to the vehicle control group: Day 34, one-way ANOVA with Tukey's multiple comparisons; for Final CRs: complete tumor regressions at end of study; for Final CRs / Final PRs: 10 mice per group; for Final PRs: partial tumor regressions at end of study; for TGI: respective to Vehicle-treated animals at Day 34, MK-6482 3 mg/kg BID oral, Lenvatinib 10 mg/kg QD oral
Experimental: Prior to treatment initiation, female SCID Beige mice aged 7 weeks weighing between 18 to 21 grams were anesthetized and inoculated subcutaneously on the rear flank with single cell suspension of approximately 95% viable log-phase sub-confluent UMRC2 (5.0×10^6) cells in 0.1 mL of serum-free Dulbecco's Modified Eagle Medium (DMEM) to initiate tumor development. Treatment was initiated when the mean tumor volume of inoculated animals reached approximately 205 mm^3. Mice were pair-matched into 4 treatment groups consisting of 10 mice per group. Treatment groups consisted of: 1) 0.5% methylcellulose+0.5% Tween 80 (Vehicle); 2) MK-6482; 3) Lenvatinib; 4) MK-6482+Lenvatinib. Vehicle and MK-6482 were orally gavage-dosed twice daily (BID) at 3 mg/kg body weight. Lenvatinib was orally dosed once daily (QD) at 10 mg/kg body weight. Treatment began on Day 0 and completed on Day 34. —Caliper measurements of tumors and body weights were captured twice weekly. Statistical analysis was performed by one-way ANOVA with Tukey's multiple comparisons tests at the end of the study, Day 34.
CRs were defined as no observable tumor whereas PRs were tumors whose volume was lower than the original tumor size when treatment began.

[2] = FIH Phase 1 study of tolerability, safety, PK of MK-6482 in participants with advanced solid tumors; assay type: in vivo, human
Experimental: As of 6 Sep. […] 52 additional participants with advanced RCC were treated in an expansion cohort (Part 1B) at the clinical dose of 120 mg QD.

[3] = tested on: advanced RCC; assay: FIH Phase 1 study, best response by RECIST v1.1 in previously treated advanced RCC; assay type: in vivo, human; conditions: 120 mg QD, 55 participants with previously treated advanced RCC
Experimental: A FIH Phase 1 study designed to assess the tolerability, safety, PK, and PD properties of MK-6482 in participants with various advanced solid tumors is ongoing. As of 6 Sep. 2019 a total of 104 participants had been enrolled, including 43 participants with various advanced solid tumors in the dose-escalation portion (Part 1A) ranging from 20 to 240 mg QD and 120 mg BID. The MTD was not reached and 2 treatment-related DLTs were observed: 1 Grade 4 event of thrombocytopenia in the 240 mg QD cohort, and 1 Grade 3 event of hypoxia in the 120 mg BID cohort. The 120 mg QD dose was selected for further clinical development based on favorable PK, pharmacodynamic, and safety findings. 52 additional participants with advanced RCC were treated in an expansion cohort (Part 1B) at the clinical dose of 120 mg QD. […] In total, 55 participants with previously treated advanced RCC have been treated in this study with MK-6482 at 120 mg QD (3 patients in the dose-escalation portion of the study and 52 participants in the dose expansion portion of the study). Best response among these 55 participants included 11 participants (20%) with PR and 32 participants (58%) with SD as assessed by RECIST v1.1.

[4] = Phase 2 open-label efficacy and safety study in VHL disease associated RCC; assay type: in vivo, human; conditions: 120 mg QD, 61 participants with VHL disease associated RCC
Source text: A Phase 2, open-label efficacy and safety study in participants with VHL disease associated RCC is ongoing. As of 6 Sep.

[5] = Phase 1 cross-over study of the effect of food on the PK of MK-6482 in healthy volunteers; assay type: in vivo, human; conditions: single dose 120 mg, healthy female adult volunteers
[6] = combined dose escalation and expansion cohorts

SMILES: COc1cc2nccc(Oc3ccc(NC(=O)NC4CC4)c(Cl)c3)c2cc1C(N)=O [Lenvatinib, 4-[3-chloro-4-(cyclopropylaminocarbonyl)aminophenoxy]-7-methoxy-6-quinolinecarboxamide]
- anti-tumor activity compared to the vehicle control group [1]: significant anti-tumor activity
- Final CRs [1]: 0/10 PRs, 0/10 CRs
- Final PRs [1]: 0/10 PRs, 0/10 CRs
- TGI [1]: 83%

SMILES: CS(=O)(=O)c1ccc(Oc2cc(F)cc(C#N)c2)c2c1[C@H](O)[C@H](F)[C@@H]2F [MK-6482, 3-[(1S,2S,3R)-2,3-difluoro-1-hydroxy-7-methylsulfonyl-indan-4-yl]oxy-5-fluoro-benzonitrile]
- accumulation from Day 1 to Day 15 ([2]; 120 mg QD expansion cohort (Part 1B)): 1.5 fold
- treatment-related DLTs observed (number) ([2]; 1 Grade 4 thrombocytopenia in 240 mg QD cohort, 1 Grade 3 hypoxia in 120 mg BID cohort): 2
- most common AEs (anemia, fatigue, dyspnea, nausea, peripheral edema), share of participants [2, 6]: ≥ 20%
- most common Grade 3 AEs (anemia and hypoxia), share of participants [2, 6]: ≥ 5%
- MTD ([2]; dose escalation (Part 1A) 20 to 240 mg QD and 120 mg BID): not reached
- Cmax ([2]; human, in vivo, 120 mg QD expansion cohort (Part 1B), Day 15, read-out: mean steady state Cmax): 1790 ng/mL and 4.67 µM
- half-life ([2]; human, in vivo, 120 mg QD expansion cohort (Part 1B), Day 15, read-out: mean steady state t1/2 (converted)): 15.4 h
- best response PR, number of participants [3]: 11 participants
- best response PR, share of participants [3]: 20%
- best response SD, number of participants [3]: 32 participants
- best response SD, share of participants [3]: 58%
- most common AE of ≥Grade 3 toxicity (fatigue), share of participants [4]: ≥ 5%
- anti-tumor activity compared to the vehicle control group [1]: significant anti-tumor activity
- Final CRs [1]: 0/10
- Final PRs [1]: 1/10
- TGI [1]: 51%
- delay of time to peak MK-6482 exposure, median difference (Fed—Fasted) [5]: 2 h
- most common adverse event (headache), incidence [5]: 12.5%
- effect of high fat, high calorie meal on extent of MK-6482 exposure ([5]; fed vs fasted): did not affect
- lowering of maximum plasma MK-6482 concentration by high fat, high calorie meal ([5]; fed vs fasted): approximately 35%
